# Data from paper PMC5247677 (Scientific Reports, 2017).
# What was measured:
# hNaV1.1 = target: T1, hNaV1.1 (Homo sapiens, UniProt P35498); test: cell-based; conditions: whole cell electrophysiology, HEK293; pH 7.4, 0.1% BSA; holding −80 mV, test −20 mV; incubation 5–40 min; mean ± SEM, n = 3–9 cells; read-out: pIC50 at hNaV1.1 (converted)
# T1 construct: host or cells: HEK293
# hNaV1.2 = target: T2, hNaV1.2 (Homo sapiens, UniProt Q99250); test: cell-based; conditions: whole cell electrophysiology, HEK293; pH 7.4, 0.1% BSA; holding −80 mV, test −20 mV; incubation 5–40 min; mean ± SEM, n = 3–9 cells; read-out: pIC50 at hNaV1.2 (converted)
# T2 construct: host or cells: HEK293
# hNaV1.3 = target: T3, hNaV1.3 (Homo sapiens, UniProt Q9NY46); test: cell-based; conditions: whole cell electrophysiology, HEK293; pH 7.4, 0.1% BSA; holding −80 mV, test −20 mV; incubation 5–40 min; mean ± SEM, n = 3–9 cells; read-out: pIC50 at hNaV1.3 (converted)
# T3 construct: host or cells: HEK293
# hNaV1.4 = target: T4, hNaV1.4 (Homo sapiens, UniProt P35499); test: cell-based; conditions: whole cell electrophysiology, HEK293; pH 7.4, 0.1% BSA; holding −80 mV, test −20 mV; incubation 5–40 min; mean ± SEM, n = 3–9 cells; read-out: pIC50 at hNaV1.4 (converted)
# T4 construct: host or cells: HEK293
# T4 sequence (P35499 whole entry): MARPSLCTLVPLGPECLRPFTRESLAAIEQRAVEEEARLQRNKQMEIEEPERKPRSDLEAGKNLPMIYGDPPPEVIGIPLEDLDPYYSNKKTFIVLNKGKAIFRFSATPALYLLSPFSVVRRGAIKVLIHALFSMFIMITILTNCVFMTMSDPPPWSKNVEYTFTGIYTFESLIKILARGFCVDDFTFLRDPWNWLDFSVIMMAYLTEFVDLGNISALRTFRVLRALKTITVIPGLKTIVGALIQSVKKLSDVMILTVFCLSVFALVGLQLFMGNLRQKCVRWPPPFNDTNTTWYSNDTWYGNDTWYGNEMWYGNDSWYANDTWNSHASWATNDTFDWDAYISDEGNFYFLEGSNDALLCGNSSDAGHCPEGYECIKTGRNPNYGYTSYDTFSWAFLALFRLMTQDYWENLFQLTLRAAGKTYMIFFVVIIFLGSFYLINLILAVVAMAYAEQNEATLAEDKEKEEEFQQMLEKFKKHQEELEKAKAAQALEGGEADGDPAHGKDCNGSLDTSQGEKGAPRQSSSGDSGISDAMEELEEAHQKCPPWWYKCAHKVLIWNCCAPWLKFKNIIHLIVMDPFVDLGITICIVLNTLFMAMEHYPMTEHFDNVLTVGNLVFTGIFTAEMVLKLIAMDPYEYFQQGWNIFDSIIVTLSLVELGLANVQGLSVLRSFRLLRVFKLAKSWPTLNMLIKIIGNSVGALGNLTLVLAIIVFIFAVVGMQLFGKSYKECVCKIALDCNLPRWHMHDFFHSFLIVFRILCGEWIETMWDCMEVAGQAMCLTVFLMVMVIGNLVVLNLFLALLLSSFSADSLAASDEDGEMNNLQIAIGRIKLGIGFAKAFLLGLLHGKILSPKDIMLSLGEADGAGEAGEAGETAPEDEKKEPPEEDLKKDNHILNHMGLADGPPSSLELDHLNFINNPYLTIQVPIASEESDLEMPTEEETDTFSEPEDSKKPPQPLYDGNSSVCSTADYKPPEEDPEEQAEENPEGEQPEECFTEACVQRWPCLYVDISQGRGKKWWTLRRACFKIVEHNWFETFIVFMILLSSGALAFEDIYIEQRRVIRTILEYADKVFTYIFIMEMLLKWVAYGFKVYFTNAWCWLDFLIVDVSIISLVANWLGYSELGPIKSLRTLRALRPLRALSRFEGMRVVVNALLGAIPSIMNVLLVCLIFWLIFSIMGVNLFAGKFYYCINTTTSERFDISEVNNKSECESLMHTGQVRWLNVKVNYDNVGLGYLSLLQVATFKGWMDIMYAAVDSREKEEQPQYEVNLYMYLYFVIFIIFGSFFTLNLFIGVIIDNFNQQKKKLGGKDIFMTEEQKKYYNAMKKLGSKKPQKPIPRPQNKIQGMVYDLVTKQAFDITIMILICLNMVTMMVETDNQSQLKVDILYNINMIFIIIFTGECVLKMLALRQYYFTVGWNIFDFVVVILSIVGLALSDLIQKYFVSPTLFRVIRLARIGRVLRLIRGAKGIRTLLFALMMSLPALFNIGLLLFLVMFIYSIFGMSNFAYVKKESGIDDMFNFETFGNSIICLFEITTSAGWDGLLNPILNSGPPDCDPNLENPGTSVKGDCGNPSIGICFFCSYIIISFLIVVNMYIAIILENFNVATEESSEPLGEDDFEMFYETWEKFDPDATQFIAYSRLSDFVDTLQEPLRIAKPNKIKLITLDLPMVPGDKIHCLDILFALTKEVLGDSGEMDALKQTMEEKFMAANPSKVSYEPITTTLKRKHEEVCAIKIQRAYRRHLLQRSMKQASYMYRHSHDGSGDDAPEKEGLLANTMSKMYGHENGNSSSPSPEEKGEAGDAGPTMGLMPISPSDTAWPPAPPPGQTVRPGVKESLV
# hNaV1.5 = target: T5, hNaV1.5 (Homo sapiens, UniProt Q14524); test: cell-based; conditions: whole cell electrophysiology, HEK293; pH 7.4, 0.1% BSA; holding −80 mV, test −20 mV; incubation 5–40 min; mean ± SEM, n = 3–9 cells; read-out: pIC50 at hNaV1.5 (converted)
# T5 construct: host or cells: HEK293
# hNaV1.6 = target: T6, hNaV1.6 (Homo sapiens, UniProt Q9UQD0); test: cell-based; conditions: whole cell electrophysiology, HEK293; pH 7.4, 0.1% BSA; holding −80 mV, test −20 mV; incubation 5–40 min; mean ± SEM, n = 3–9 cells; read-out: pIC50 at hNaV1.6 (converted)
# T6 construct: host or cells: HEK293
# hNaV1.8 = target: T7, hNaV1.8 (Homo sapiens, UniProt Q9Y5Y9); test: cell-based; conditions: whole cell patch-clamp
# T7 construct: host or cells: CHO
# hNaV1.9 = target: T8, hNaV1.9 (Homo sapiens, UniProt Q9UI33); test: cell-based; conditions: PatchXpress, HEK293
# T8 construct: host or cells: HEK293
# Excerpt: Data were plotted and analyzed using GraphPad Prism, version 6.0. For concentration-response curves, a four-parameter Hill equation with variable Hill coefficient was fitted to the data. […] Data are presented as mean ± SEM.
# rNaV1.7 = target: T9, rNaV1.7 (Rattus norvegicus, UniProt O08562); test: Whole-cell patch-clamp (QPatch-16), rNaV1.7; format: cell-based; conditions: QPatch-16, HEK293; pH 7.4, 0.1% BSA; holding −80 mV, test −20 mV; mean ± SEM; read-out: pIC50 at rat NaV1.7 (converted)
# T9 construct: expressed in transfected cells; host or cells: HEK293
# T9 sequence (O08562 whole entry): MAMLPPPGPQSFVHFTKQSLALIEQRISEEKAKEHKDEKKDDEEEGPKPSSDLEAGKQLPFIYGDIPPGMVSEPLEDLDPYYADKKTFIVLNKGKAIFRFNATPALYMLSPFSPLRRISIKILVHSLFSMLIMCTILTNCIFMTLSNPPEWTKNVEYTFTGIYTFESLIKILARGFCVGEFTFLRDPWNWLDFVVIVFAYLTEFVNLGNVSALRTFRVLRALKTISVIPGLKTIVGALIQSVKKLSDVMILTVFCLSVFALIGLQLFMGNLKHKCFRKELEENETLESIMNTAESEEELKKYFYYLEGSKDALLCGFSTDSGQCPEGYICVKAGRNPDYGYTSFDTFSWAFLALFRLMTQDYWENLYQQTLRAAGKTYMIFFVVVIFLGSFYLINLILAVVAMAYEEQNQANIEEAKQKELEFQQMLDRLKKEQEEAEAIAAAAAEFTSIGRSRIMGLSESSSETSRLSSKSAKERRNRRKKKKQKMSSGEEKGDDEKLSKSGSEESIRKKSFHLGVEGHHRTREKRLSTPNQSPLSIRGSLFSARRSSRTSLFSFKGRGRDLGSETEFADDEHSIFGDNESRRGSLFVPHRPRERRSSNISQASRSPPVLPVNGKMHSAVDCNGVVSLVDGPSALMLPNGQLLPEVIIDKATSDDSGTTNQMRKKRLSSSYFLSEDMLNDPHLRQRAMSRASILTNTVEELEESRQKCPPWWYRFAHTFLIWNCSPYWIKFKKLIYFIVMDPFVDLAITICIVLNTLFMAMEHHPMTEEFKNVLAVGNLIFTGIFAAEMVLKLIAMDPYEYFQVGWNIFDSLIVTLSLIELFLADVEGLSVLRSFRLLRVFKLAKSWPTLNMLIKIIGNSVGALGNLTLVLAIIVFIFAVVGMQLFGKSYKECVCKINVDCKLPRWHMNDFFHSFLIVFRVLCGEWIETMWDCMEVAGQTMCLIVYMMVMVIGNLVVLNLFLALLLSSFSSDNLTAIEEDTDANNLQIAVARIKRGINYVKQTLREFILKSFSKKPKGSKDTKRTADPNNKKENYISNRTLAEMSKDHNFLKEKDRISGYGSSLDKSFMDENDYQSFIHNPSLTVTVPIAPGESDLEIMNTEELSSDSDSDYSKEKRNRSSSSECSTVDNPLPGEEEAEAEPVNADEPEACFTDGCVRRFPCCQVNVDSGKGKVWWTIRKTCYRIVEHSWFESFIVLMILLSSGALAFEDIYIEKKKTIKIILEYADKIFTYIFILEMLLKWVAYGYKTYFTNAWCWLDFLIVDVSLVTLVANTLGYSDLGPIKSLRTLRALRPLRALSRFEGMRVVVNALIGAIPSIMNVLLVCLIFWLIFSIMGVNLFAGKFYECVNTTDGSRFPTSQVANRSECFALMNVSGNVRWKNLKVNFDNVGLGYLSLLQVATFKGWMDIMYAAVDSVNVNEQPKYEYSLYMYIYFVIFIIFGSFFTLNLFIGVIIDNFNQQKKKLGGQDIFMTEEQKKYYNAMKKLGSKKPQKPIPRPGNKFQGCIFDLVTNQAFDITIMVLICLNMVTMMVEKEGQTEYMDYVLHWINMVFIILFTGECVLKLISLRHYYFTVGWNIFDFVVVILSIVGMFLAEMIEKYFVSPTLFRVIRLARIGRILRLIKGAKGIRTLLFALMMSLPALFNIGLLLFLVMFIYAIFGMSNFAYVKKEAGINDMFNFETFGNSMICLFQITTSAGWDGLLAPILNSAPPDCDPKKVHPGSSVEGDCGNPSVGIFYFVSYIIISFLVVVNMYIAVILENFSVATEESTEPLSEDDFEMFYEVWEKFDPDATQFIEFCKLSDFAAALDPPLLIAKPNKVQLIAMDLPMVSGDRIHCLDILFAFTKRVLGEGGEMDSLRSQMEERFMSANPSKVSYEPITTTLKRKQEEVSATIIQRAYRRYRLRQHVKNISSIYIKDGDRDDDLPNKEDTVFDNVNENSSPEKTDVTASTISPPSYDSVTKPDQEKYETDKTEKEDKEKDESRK
# mNaV1.7 = target: T10, mNaV1.7 (Mus musculus, UniProt Q62205); test: Whole-cell patch-clamp (PatchXpress), mNaV1.7; format: cell-based; conditions: HEK293, pH 7.4, holding −120 mV, 20 ms test pulse 0 mV, mean ± SEM, read-out: pIC50 at mouse NaV1.7 (converted)
# T10 construct: host or cells: HEK293
# rKV2.1 = target: T11, rKV2.1 (Rattus norvegicus, UniProt P15387); test: Two-electrode voltage-clamp in Xenopus oocytes, wild-type rKV2.1; format: cell-based; conditions: Xenopus laevis oocytes, pH 7.6, 22 °C, 0.1% BSA
# T11 construct: expressed in transfected cells; host or cells: Xenopus laevis oocytes
# T11 sequence (P15387 whole entry): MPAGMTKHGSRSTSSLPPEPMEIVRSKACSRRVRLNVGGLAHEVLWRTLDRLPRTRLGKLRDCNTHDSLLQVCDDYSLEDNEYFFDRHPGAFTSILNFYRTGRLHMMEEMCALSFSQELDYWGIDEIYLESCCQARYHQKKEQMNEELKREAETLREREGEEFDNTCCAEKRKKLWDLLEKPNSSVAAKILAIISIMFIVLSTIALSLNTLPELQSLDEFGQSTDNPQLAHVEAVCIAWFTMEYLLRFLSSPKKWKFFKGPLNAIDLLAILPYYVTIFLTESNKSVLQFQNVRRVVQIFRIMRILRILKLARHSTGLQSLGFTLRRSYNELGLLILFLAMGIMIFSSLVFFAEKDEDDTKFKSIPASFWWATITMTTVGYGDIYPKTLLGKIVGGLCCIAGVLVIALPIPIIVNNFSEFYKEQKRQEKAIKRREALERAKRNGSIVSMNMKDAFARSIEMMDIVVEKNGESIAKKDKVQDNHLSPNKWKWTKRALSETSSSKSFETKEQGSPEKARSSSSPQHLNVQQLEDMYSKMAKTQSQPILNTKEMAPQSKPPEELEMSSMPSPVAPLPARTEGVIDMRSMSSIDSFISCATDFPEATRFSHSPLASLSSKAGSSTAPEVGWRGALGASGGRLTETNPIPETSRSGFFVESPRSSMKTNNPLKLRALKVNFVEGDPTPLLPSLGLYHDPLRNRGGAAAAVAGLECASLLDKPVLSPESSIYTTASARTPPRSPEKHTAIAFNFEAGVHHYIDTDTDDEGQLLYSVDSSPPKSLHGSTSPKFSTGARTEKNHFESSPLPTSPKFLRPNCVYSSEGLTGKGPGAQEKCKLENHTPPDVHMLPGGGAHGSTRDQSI
# α7 nAChR = α7 nAChR (Homo sapiens, UniProt P36544); test: FLIPR calcium responses in SH-SY5Y cells, α7 nAChR; format: cell-based; conditions: FLIPR Tetra, choline with PNU120596, 0.1–10 μM, 5 min pre-treatment
# α7 nAChR, sequence (P36544 23-502): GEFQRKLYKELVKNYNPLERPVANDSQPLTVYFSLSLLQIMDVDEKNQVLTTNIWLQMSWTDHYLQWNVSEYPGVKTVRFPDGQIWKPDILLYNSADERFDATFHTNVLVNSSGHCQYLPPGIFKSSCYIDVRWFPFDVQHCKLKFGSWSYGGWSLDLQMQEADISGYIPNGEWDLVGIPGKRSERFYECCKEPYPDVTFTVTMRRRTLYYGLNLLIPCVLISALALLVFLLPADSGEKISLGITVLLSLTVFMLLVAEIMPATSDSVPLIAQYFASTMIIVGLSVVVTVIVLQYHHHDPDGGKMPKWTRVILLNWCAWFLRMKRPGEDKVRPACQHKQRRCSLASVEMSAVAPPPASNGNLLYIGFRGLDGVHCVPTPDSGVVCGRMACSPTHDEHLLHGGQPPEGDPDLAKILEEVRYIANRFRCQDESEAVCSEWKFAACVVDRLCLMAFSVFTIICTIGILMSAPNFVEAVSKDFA
# α3 nAChR = α3 nAChR (Homo sapiens, UniProt P32297); test: FLIPR calcium responses in SH-SY5Y cells, α3 nAChR; format: cell-based; conditions: FLIPR Tetra, nicotine 30 μM, 0.1–10 μM, 5 min pre-treatment
# NaV1.7 = conditions: 0.3–3 mg/kg i.p., mice
# Experimental: For behavioural assessment we used adult male C57BL/6 J mice or Sprague Dawley rats aged 5–8 weeks. Animals were housed in groups of 2–4 per cage, under 12 h light-dark cycles with standard rodent chow and water ad libitum. All assessments were performed by a blinded investigator unaware of the treatment each animal received. Ethical approval for in vivo experiments in animals was obtained from the University of Queensland, University of Sydney or United Kingdom Home Office animal ethics committee. Experiments involving animals were conducted in accordance with the International Association for the Study of Pain Guidelines for the Use of Animals in Research and the Australian Code of Practice for the Care and Use of Animals for Scientific Purposes, 8th edition (2013).
# [1] = test system: motor performance in rats; format: in vivo, rat (Sprague Dawley)
# Experimental: FCA was administered undiluted in a volume of 150 μL by i.pl injection in rats. Behavioural assessment was performed 3 days post-injection of FCA. For intrathecal administration, a polyethylene lumbar catheter was inserted into the intrathecal space between vertebrae L4–L5. […] Mechanical paw withdrawal thresholds were determined using manual von Frey with a series of calibrated filaments 0.4–15.1 g (Stoelting Co., Wood Dale, USA) using the up-down method. Paw withdrawal latency to a thermal stimulus was determined using the Hargreaves test (Ugo Basile, Camerio VA, Italy). Motor co-ordination was assessed using an accelerating rotarod (Ugo Basile). Latency to fall was recorded in seconds, with a maximal cut off of 300 s. At the completion of experiments, catheter placement was checked by injection of lignocaine (2%, 10 μL) and observation of rapid bilateral hind limb paralysis.
# [2] = precluded chronic testing
smiles,measurement,setting,value
"CSCC[C@@H]1NC(=O)[C@H](Cc2ccc(O)cc2)NC(=O)[C@H](CCCNC(=N)N)NC(=O)[C@@H](NC(=O)[C@@H](N)CC(=O)O)CSSC[C@@H]2NC(=O)[C@@H]3CSSC[C@@H](C(=O)N[C@@H](C)C(=O)N[C@@H](Cc4c[nH]c5ccccc45)C(=O)N[C@@H](CC(=O)O)C(=O)N[C@@H](Cc4ccccc4)C(=O)N[C@H](C(=O)N[C@@H](Cc4ccccc4)C(=O)N[C@H](C(=O)O)[C@@H](C)O)[C@@H](C)O)NC(=O)[C@H](Cc4ccc(O)cc4)NC(=O)[C@H](CCCCN)NC(=O)[C@H](CCSC)NC(=O)[C@H](CCCCN)NC(=O)[C@H](CCCNC(=N)N)NC(=O)[C@H](CCCCN)NC(=O)[C@H](CSSC[C@H](NC(=O)[C@H](CC(=O)O)NC(=O)CNC(=O)[C@H](Cc4ccccc4)NC1=O)C(=O)N[C@@H](CCC(=O)O)C(=O)N[C@@H](CCCCN)C(=O)N[C@@H](CC(=O)O)C(=O)N[C@@H](CCC(=O)O)C(=O)N[C@@H](CC(=O)O)C(=O)N3)NC(=O)CNC(=O)[C@H](CC(C)C)NC(=O)[C@H](Cc1cnc[nH]1)NC(=O)[C@H](CCCCN)NC2=O [Pn3a, μ-theraphotoxin-Pn3a]",IC50,hNaV1.1,0.0372 µM
same,IC50,hNaV1.2,0.123 µM
same,IC50,hNaV1.3,0.209 µM
same,IC50,hNaV1.4,0.145 µM
same,IC50,hNaV1.5,0.794 µM
same,IC50,hNaV1.6,0.129 µM
same,IC50,hNaV1.8,49.9 µM
same,IC50,hNaV1.9,2.43 µM
same,IC50,rNaV1.7,0.00148 µM
same,IC50,mNaV1.7,0.00437 µM
same,IC50,rKV2.1,> 0.3 µM
same,IC50,α7 nAChR,> 10 µM
same,IC50,α3 nAChR,> 10 µM
same,adverse effects,NaV1.7,absence of adverse effects
same,Rotarod % Baseline,"[1]; 0.3 nmoles intrathecal, control 88 ± 7%, P > 0.05, unpaired t-test, n = 4–9",91 ± 11%
same,motor effect,"[1]; 1 nmole intrathecal, rats, data not shown",motor impairment was observed
same,pharmacokinetics,[2],poor pharmacokinetics
